Source: patent publication US6949544B2, “Inhibitors of c-Jun N-terminal kinases (JNK) and other protein kinases” (Vertex Pharmaceuticals Incorporated, priority 2001, dated 2005)

Biological target: T1, Lck kinase purified from bovine thymus (Bos taurus, UniProt Q3ZCM0)
T1 construct: Lck kinase purified from bovine thymus; purchased Upstate Biotechnology 14-106; host or cells: bovine thymus (tissue-purified)
Test: Lck inhibition assay (33P incorporation into poly Glu-Tyr)
Type: biochemical
Conditions: 10 μM ATP; read-out: Activity in the Lck Inhibition Assay (Ki rating A-C)
Experimental: The compounds were assayed as inhibitors of Lck kinase purified from bovine thymus (from Upstate Biotechnology, cat. no. 14-106). Lck kinase activity was monitored by following the incorporation of ^33P from ATP into the tyrosine of a random poly Glu-Tyr polymer substrate of composition, Glu:Tyr=4:1 (Sigma, cat. no. P-0275). The following were the final concentrations of the assay components: 0.05 M HEPES, pH 7.6, 10 mM MgCl2, 2 mM DTT, 0.25 mg/ml BSA, 10 μM ATP (1-2 μCi ^33P-ATP per reaction), 5 mg/ml poly Glu-Tyr, and 1-2 units of lck kinase. In a typical assay, all the reaction components with the exception of ATP were pre-mixed and aliquoted into assay plate wells. […] The assay plate was incubated at 30° C. for 10 min before initiating the reaction with ^33P-ATP. After 20 min of reaction, the reactions were quenched with 150 μl of 10% trichloroacetic acid (TCA) containing 20 mM Na3PO4. The quenched samples were then transferred to a 96-well filter plate (Whatman, UNI-Filter GF/F Glass Fiber Filter, cat no. 7700-3310) installed on a filter plate vacuum manifold. Filter plates were washed four times with 10% TCA containing 20 mM Na3PO4 and then 4 times with methanol. 200 μl of scintillation fluid was then added to each well. The plates were sealed and the amount of radioactivity associated with the filters was quantified on a TopCount scintillation counter.

T1 sequence (Q3ZCM0 1-509): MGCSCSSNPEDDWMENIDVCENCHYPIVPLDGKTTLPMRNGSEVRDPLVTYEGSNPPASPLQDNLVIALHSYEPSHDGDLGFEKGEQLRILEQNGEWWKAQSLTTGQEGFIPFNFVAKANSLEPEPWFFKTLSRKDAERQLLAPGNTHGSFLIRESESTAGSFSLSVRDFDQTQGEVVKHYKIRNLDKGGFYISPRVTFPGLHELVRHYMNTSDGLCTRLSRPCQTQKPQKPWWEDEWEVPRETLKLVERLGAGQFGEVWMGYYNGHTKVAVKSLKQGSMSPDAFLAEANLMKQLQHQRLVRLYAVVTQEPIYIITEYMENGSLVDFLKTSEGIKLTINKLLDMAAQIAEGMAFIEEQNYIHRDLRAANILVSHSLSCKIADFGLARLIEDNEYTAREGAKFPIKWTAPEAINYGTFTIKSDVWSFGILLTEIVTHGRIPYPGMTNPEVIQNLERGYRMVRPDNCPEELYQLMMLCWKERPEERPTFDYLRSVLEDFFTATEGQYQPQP

| Compound | Ki [nM] |
| --- | --- |
| COc1c(-c2ccnc(Nc3cccc(Oc4ccccc4)c3)n2)ccc2c1OCCO2 [II-17, [4-(5-Methoxy-2,3-dihydro-benzo[1,4]dioxin-6-yl)-pyrimidin-2-yl]-(3-phenoxyphenyl)-amine] | > 1000 |
| COc1ccc(-c2ccnc(Nc3cccc(Oc4ccccc4)c3)n2)c(OC)c1OCCN1CCOCC1 [II-19] | > 1000 |
| COc1ccc(-c2ccnc(Nc3cccc(OCc4ccccc4)c3)n2)c(OCCN2CCOCC2)c1OC [II-22] | > 1000 |
| COc1ccc(-c2ccnc(Nc3cccc(Oc4ccncc4)c3)n2)c(OC)c1OC [II-23] | < 100 |
| COc1cc(Oc2ccccc2)nc(Nc2nccc(-c3ccc(OC)c(OC)c3OC)n2)n1 [II-34] | > 1000 |
| COc1ccc(-c2ccnc(Nc3cccc(-c4ccc(F)cc4)c3)n2)c(OC)c1OC [II-37] | < 100 |
| COc1ccc(-c2ccnc(Nc3cccc(-c4cccc(Cl)c4)c3)n2)c(OC)c1OC [II-39] | < 100 |
| COc1ccc(-c2ccnc(Nc3cccc(-c4ccc(Cl)cc4)c3)n2)c(OC)c1OC [II-40] | < 100 |
| COc1ccccc1-c1cccc(Nc2nccc(-c3ccc(OC)c(OC)c3OC)n2)c1 [II-41] | 100 to 1000 |
| COc1cccc(-c2cccc(Nc3nccc(-c4ccc(OC)c(OC)c4OC)n3)c2)c1 [II-42] | 100 to 1000 |
| COc1ccc(-c2cccc(Nc3nccc(-c4ccc(OC)c(OC)c4OC)n3)c2)cc1 [II-43] | < 100 |

Further lines, results first:

| Ki [nM] | Compound |
| --- | --- |
| 100 to 1000 | COc1ccc(-c2ccnc(Nc3cccc(OCc4ccccc4)c3)n2)c2c1OCCO2 [II-16] |
| > 1000 | COc1ccc(-c2ccnc(Nc3cccc(OCc4ccccc4)c3)n2)c(OC)c1OCCN1CCOCC1 [II-20] |
| > 1000 | COc1ccc(-c2ccnc(Nc3cccc(Oc4ccccc4)c3)n2)c(OCCN2CCOCC2)c1OC [II-21] |
| 100 to 1000 | COc1ccc(-c2ccnc(Nc3cccc(Cc4ccccc4)c3)n2)c(OC)c1OC [II-27] |
| < 100 | COc1ccc(Oc2ccccc2)cc1Nc1nccc(-c2ccc(OC)c(OC)c2OC)n1 [II-31] |
| < 100 | COc1ccc(-c2ccnc(Nc3cccc(-c4ccccc4F)c3)n2)c(OC)c1OC [II-35] |
| < 100 | COc1ccc(-c2ccnc(Nc3cccc(-c4cccc(F)c4)c3)n2)c(OC)c1OC [II-36] |
| 100 to 1000 | COc1ccc(-c2ccnc(Nc3cccc(-c4ccccc4Cl)c3)n2)c(OC)c1OC [II-38] |
